Assay results reported in US12377069B2, “Compounds, compositions, methods of using, and methods for preparing compounds” (UNIVERSITY OF LOUISVILLE RESEARCH FOUNDATION, INC., priority 2018, dated 2025).

Experiments:
[1] = tested on: Nrf2; assay: Nrf2 expression, nuclear translocation and target genes; type: cell-based, human; conditions: for NQO1 expression in HT29 cells: 50 μM; for Nrf2 mRNA and protein levels / Nrf2 nuclear translocation: HT29, 50 μM; for Nrf2 nuclear translocation: 6 h
Description: Real time PCR: Total RNA was isolated from cells/tissue using Maxwell® 16 LEV simplyRNA tissue kit (Promega) and reverse transcribed with TaqManC Reverse transcription Kit (Applied Biosystems, CA, USA). The transcribed cDNA (after dilution) was mixed with 100 nM gene specific primers (Real time primers LLC) and 1×SYBR green reaction mix (Power SYBR® Green PCR Master Mix; Applied Biosystems, CA, USA). Changes in gene expression was analyzed using CFX96™ Real-Time System (Bio Rad) and fold change in expression was calculated using 2^ΔΔCT method using GAPDH/0-actin as house keeping gene and normalized with untreated control.
Immunoblots (Western blots): The total protein lysates were collected either from colon tissue/cells using radioimmunoprecipitation assay (RIPA) buffer (Sigma-Aldrich, USA) and quantified using BCA protein quantification kit (Thermo Scientific) as per instructional manual. Total protein (20-50 μg) of was resolved on NuPAGE™ 4-12% Bis-Tris gel (Novex Life technologies) and transferred to polyvinylidene difluoride membrane (0.22 μm pore; Millipore, USA). After blocking with 5% (w/v) skim milk powder (containing 1×TBS) for 1 h, the membrane was then incubated with respective antibodies at 4° C. overnight (dilutions of respective antibodies is given in Table A1). Next day, respective secondary antibody conjugated with Horseradish peroxidase were probed and the chemiluminescent substrate was used to detect the protein bands (ImageQuant LAS 4000). Densitometry analysis of bands were done using ImageJ software. Antibodies for Cldn4, Ocln, Cldn1, Cyp1A1, AhR, HO1, NQO1, Keap1, β-actin and Lamin B were purchased from Santa Cruz Biotechnologies (USA) and Nrf2 from Novus Biologicals (USA).
Confocal Imaging: HT29 or CaCo2 or BMDM cells (50,000 cells/well) were plated on to 8-well chambered slides (154534PK; ThermoFisher Scientific) allowed them to grow overnight. The cells were induced with vehicle (0.01% DMSO) or UroA (50 μM) or UAS03 (50 μM) for desired time points and fixed with cold methonol. The AhR or Nrf2 or Cldn4 stained with respective antibodies (1:200 dilution) followed by fluorecently labelled (Alexa flour 594 for AhR and Alexa flour 488 for Nrf2 and Cldn4) secondary ab (1:500 dilution; ThermoFisher Scientific). The nucleus was stained with DAPI (Sigma Aldrich). The confocal images were captured using Nikon AIR confocal microscope using 60× magnification lense with appropriate laser channels.

[2] = tested on: BMDM; assay: Nrf2-dependent pathways in macrophages; type: cell-based, mouse; conditions: 50 μM
Description: The data is separately presented for each time point (No TNBS− Solid black line; Veh+TNBS− Solid red line; UroA+TNBS− Solid blue line; UAS03+TNBS− Solid purple line). The data is separately presented for each time point. (No TNBS− Solid black line; Veh+TNBS− Solid red line; UroA+TNBS− Solid blue line; UAS03+TNBS− Solid purple line). (C-G) UroA/UAS03 activate Nrf2-dependent pathways in BMDM. (C) Wild type BMDM were isolated and cultured for 7 days. BMDM were treated with Veh (0.01% DMSO) or UroA or UAS03 (50 μM) for 6 h and total RNA was isolated. Nrf2 levels were measured using SyBR green Real Time PCR method. (D) Veh or UroA or UAS03 treated BMDM cell lysates were immunoblotted for Nrf2. (E) The nuclear and cytosolic fractions of BMDMs were immnunobloted for Nr2. Lamin B and β-actin were used as normalizing proteins. […] The expression of Nrf2 was determined by immunofluorescence staining using anti-Nrf2 followed by secondary antibody tagged with Alexa-488 dye and DAPI was used to stain nucleus. The fluorescence images were captured using Nikon A1R confocal microscope at 60× magnification and green fluorescence (n=>15 cells) was measured using Nikon elements software. […] NF-κB activation was evaluated by EMSA assays. […] The fold change over basal was calculated using its own control. […]

[3] = tested on: 5FU resistant (5FUR) colon cancer cell lines; assay: Cell viability of 5FU resistant colon cancer cell lines; type: cell-based; conditions: combination of 5FU
[4] = tested on: colon cancer cell line (SW480); assay: Proliferation assay with 5FU; conditions: for effect on cell proliferation, compound alone: without 5FU
[5] = tested on: Nrf2; assay: Nrf2 reporter (ARE-luciferase) assay; type: cell-based, human; conditions: HT29, 50 μM, 24 h
Description: Nrf2-Reporter assay: ARE-luciferase plasmid vector was obtained from Cayman Chemicals. HT29 cells were transfected at 50% confluency using lipofectamine 3000 reagent (ThermoFisher Scientific). Briefly, cells were seeded in 6-well plates (0.5×10^6 cells) and grown for 24 h. The transfection complex containing 1 μg of plasmid DNA and transfection reagent was added to each well in absence of FBS. After 6 hr medium containing 10% FBS was added and cells were incubated for another 16-18 hr. These cells were treated with vehicle (0.01% DMSO) or UroA (50 μM) or UAS03 (50 μM) or sulforaphane (10 μM) for 24 h. After incubation with inducers, cells were lysed and firefly luciferase activities (luminiscence) were measured with Luciferase Assay System (Promega) using multiwell plate luminometer (BMG, LABTECH).

| SMILES | NQO1 expression in HT29 cells [1] | Nrf2 mRNA and protein levels [1] | Nrf2 nuclear translocation [1] | Nrf2 expression, nuclear translocation and HO1 in macrophages [2] | cell viability of 5FUR colon cancer cell lines, combination with 5FU [3] | fold less 5FU drug concentration to reach the similar effect ([4]; combination with 5FU) | increase in the inhibition of cell proliferation ([4]; with 3.12 μM of 5FU) | cell viability in combination with 5FU ([4]; with 5FU) [%] | effect on cell proliferation, compound alone [4] | ARE-luciferase luminescence [5] |
| --- | --- | --- | --- | --- | --- | --- | --- | --- | --- | --- |
| Oc1ccc2c(c1)COc1cc(O)ccc1-2 [UAS03, 6H-benzo[c]chromene-3,8-diol] | induced NQO1 expression | upregulated Nrf2 | induced its nuclear translocation | upregulated Nrf2 expression and induced its nuclear translocation | reduced cell viability | more than 32 fold | approximately 6 fold | 40 | minimal effect | enhanced luminescence |
| O=c1oc2cc(O)ccc2c2ccc(O)cc12 [UroA, 3,8-dihydroxy-6H-dibenzo[b,d]pyran-6-one] | induced NQO1 expression | upregulated Nrf2 | induced its nuclear translocation | upregulated Nrf2 expression and induced its nuclear translocation | reduced cell viability |  |  |  | minimal effect | enhanced luminescence |
